Measurements reported in PMC6136360, “Novel group of tyrosyl-DNA-phosphodiesterase 1 inhibitors based on disaccharide nucleosides as drug prototypes for anti-cancer therapy” (Journal of Enzyme Inhibition and Medicinal Chemistry, 2018).

What follows are molecules tested against T1, TDP1 (Homo sapiens, UniProt Q9NUW8) (assay: Real-time fluorescence detection of TDP1 activity, single-stranded FAM/BHQ biosensor). Conditions: 37 compared to 36; 42 compared to 41; ratio of IC50.
T1 construct: made in house; host or cells: E. coli
Assay type: biochemical
Method: Conditions and details for our real-time detection of TDP1 activity using the single-stranded and hairpin fluorescent biosensors were reported in our previous work[47]. Briefly, the approach consists in fluorescence intensity measurement of the reaction of quencher removal from the fluorophore-quencher coupled DNA-oligonucleotide catalysed by TDP1 in the presence of inhibitor and in the absence of it (the control samples contained 1% DMSO). Reaction mixtures (200 µl) contained TDP1 buffer (50 mM Tris-HCl, pH 8.0, 50 mM NaCl, 7 mM β-mercaptoethanol), oligonucleotide (50 nM substrate of TDP1), testable inhibitor and purified TDP1 (1.5 nM). The reactions were incubated at a constant temperature of 26 °C in a POLARstar OPTIMA fluorimeter, BMG LABTECH, GmbH, to measure fluorescence every 55 s (Ex485/Em520 nm) during the linear phase (here data from 0 to 8 min). The average values of half maximal inhibitory concentration (IC50) were determined using an eleven-point concentration response curve in three independent experiments and calculated using MARS Data Analysis 2.0 (BMG LABTECH).
To discover inhibitors of TDP1 we recently developed original single-stranded and hairpin fluorophore–quencher coupled DNA-biosensors for real-time measurement of TDP1 cleavage activity. The single-stranded substrate is a 16-mer oligonucleotide containing both 5′-FAM fluorophore donor and a quenching 3′-BHQ moiety (Figure 1(A)). When the quencher is removed by TDP1, the fluorescence intensity increases and can be measured by fluorimeter (TDP1 catalysed reaction on biosensor is shown in Figure 3(A). Fluorescence intensity declines in the presence of inhibitor, the resulting curves of the dependence of TDP1 residual activity as a function of the concentration of inhibitors were obtained using 4-parameter logistic regression fit, which was used to calculate IC50 values[47]^,[58].
For primary screening, the effect of a large group of disaccharide nucleosides and their hydrophobic derivatives on human recombinant TDP1 activity has been evaluated by fluorescent method on a single-stranded substrate described above.

T1 sequence (Q9NUW8 whole entry): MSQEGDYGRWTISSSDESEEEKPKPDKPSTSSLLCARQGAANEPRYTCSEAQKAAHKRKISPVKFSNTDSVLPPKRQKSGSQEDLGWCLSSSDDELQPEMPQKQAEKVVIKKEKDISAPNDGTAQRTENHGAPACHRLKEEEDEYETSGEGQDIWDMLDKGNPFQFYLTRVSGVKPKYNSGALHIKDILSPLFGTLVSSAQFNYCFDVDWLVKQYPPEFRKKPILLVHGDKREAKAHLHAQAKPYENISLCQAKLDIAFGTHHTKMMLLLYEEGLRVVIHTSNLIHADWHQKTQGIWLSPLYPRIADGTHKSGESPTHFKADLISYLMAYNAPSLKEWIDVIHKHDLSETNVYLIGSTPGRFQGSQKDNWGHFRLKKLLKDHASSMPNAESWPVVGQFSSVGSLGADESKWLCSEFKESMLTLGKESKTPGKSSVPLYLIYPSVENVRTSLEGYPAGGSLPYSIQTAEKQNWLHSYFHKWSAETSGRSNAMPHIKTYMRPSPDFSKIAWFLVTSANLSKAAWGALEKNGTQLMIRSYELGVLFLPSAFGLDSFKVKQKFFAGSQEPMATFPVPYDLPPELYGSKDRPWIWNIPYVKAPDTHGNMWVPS

SMILES | Increase of efficiency of TDP1 inhibition by appending TBDPS at 5'-position
CC(C)(C)[Si](OC[C@H]1O[C@@H](n2ccc(NC(=O)c3ccccc3)nc2=O)C[C@@H]1O[C@@H]1O[C@H](COC(=O)c2ccccc2)[C@@H](OC(=O)c2ccccc2)[C@H]1OC(=O)c1ccccc1)(c1ccccc1)c1ccccc1 [Compound 37] | about 1.6 times
CC(C)(C)[Si](OC[C@H]1O[C@@H](n2cc(I)c(=O)[nH]c2=O)C[C@@H]1O[C@@H]1O[C@H](COC(=O)c2ccccc2)[C@@H](OC(=O)c2ccccc2)[C@H]1OC(=O)c1ccccc1)(c1ccccc1)c1ccccc1 [Compound 42] | about 3.5 times

Same assay, conditions: single-stranded fluorescent biosensor 50 nM, TDP1 1.5 nM, 26 °C; read-out: IC50 (half-maximal inhibitory concentration) of TDP1 activity

SMILES | IC50
O=C(Nc1ccn([C@@H]2O[C@H](CO)[C@@H](O)[C@H]2O[C@@H]2O[C@H](COC(=O)c3ccccc3)[C@@H](OC(=O)c3ccccc3)[C@H]2OC(=O)c2ccccc2)c(=O)n1)c1ccccc1 [Compound 13] | 2600 ± 200 nM
CC(C)[Si]1(C(C)C)OC[C@H]2O[C@@H](n3ccc(NC(=O)c4ccccc4)nc3=O)[C@H](O[C@@H]3O[C@H](COC(=O)c4ccccc4)[C@@H](OC(=O)c4ccccc4)[C@H]3OC(=O)c3ccccc3)[C@@H]2O[Si](C(C)C)(C(C)C)O1 [Compound 16] | 400 ± 100 nM
Cc1cn([C@H]2C[C@H](O[C@@H]3O[C@H](COC(=O)c4ccccc4)[C@@H](OC(=O)c4ccccc4)[C@H]3OC(=O)c3ccccc3)[C@@H](CO[C@@H]3O[C@H](COC(=O)c4ccccc4)[C@@H](OC(=O)c4ccccc4)[C@H]3OC(=O)c3ccccc3)O2)c(=O)[nH]c1=O [Compound 33] | 1000 ± 100 nM
O=C(Nc1ccn([C@H]2C[C@H](O[C@@H]3O[C@H](COC(=O)c4ccccc4)[C@@H](OC(=O)c4ccccc4)[C@H]3OC(=O)c3ccccc3)[C@@H](CO)O2)c(=O)n1)c1ccccc1 [Compound 36] | 1500 ± 200 nM
CC(C)(C)[Si](OC[C@H]1O[C@@H](n2ccc(NC(=O)c3ccccc3)nc2=O)C[C@@H]1O[C@@H]1O[C@H](COC(=O)c2ccccc2)[C@@H](OC(=O)c2ccccc2)[C@H]1OC(=O)c1ccccc1)(c1ccccc1)c1ccccc1 [Compound 37] | 900 ± 100 nM
CC(C)(C)[Si](OC[C@H]1O[C@@H](n2cc(I)c(=O)[nH]c2=O)C[C@@H]1O[C@@H]1O[C@H](COC(=O)c2ccccc2)[C@@H](OC(=O)c2ccccc2)[C@H]1OC(=O)c1ccccc1)(c1ccccc1)c1ccccc1 [Compound 42] | 800 ± 100 nM

Same assay, conditions: single-stranded fluorescent biosensor, primary screening

SMILES | Inhibitory effect on TDP1 activity (in words)
Nc1ncnc2c1ncn2[C@@H]1O[C@H](CO)[C@@H](O)[C@H]1O[C@@H]1O[C@H](CO)[C@@H](O)[C@H]1O [Compound 1] | not inhibited
Cc1cn([C@@H]2O[C@H](CO)[C@@H](O)[C@H]2O[C@@H]2O[C@H](CO)[C@@H](O)[C@H]2O)c(=O)[nH]c1=O [Compound 5] | not inhibited
Nc1nc2c(ncn2[C@@H]2O[C@H](CO)[C@@H](O)[C@H]2O[C@@H]2O[C@H](CO)[C@@H](O)[C@H]2O)c(=O)[nH]1 [Compound 8] | not inhibited
Nc1ccn([C@@H]2O[C@H](CO)[C@@H](O)[C@H]2O[C@@H]2O[C@H](CO)[C@@H](O)[C@H]2O)c(=O)n1 [Compound 12] | not inhibited
O=c1ccn([C@@H]2O[C@H](CO)[C@@H](O)[C@H]2O[C@@H]2O[C@H](CO)[C@@H](O)[C@H]2O)c(=O)[nH]1 [Compound 17] | not inhibited
Nc1ncnc2c1ncn2[C@H]1C[C@H](O[C@@H]2O[C@H](CO)[C@@H](O)[C@H]2O)[C@@H](CO)O1 [Compound 22] | not inhibited
Cc1cn([C@H]2C[C@H](O[C@@H]3O[C@H](COP(=O)([O-])[O-])[C@@H](O)[C@H]3O)[C@@H](CO)O2)c(=O)[nH]c1=O.[Na+].[Na+] [Compound 25] | does not lead to the noticeable inhibitory effect
Cc1cn([C@H]2C[C@H](O[C@@H]3O[C@H](CO)[C@@H](O)[C@H]3O)[C@@H](COP(=O)(O)O)O2)c(=O)[nH]c1=O.N.N [Compound 26] | does not lead to the noticeable inhibitory effect
Cc1cn([C@H]2C[C@H](O[C@@H]3OC[C@@H](O)[C@@H](O)[C@H]3O)[C@@H](CO)O2)c(=O)[nH]c1=O [Compound 27] | did not observe any inhibitory effect
CC(=O)O[C@H]1[C@H](O[C@H]2C[C@H](n3cc(C)c(=O)[nH]c3=O)O[C@@H]2CO)OC[C@@H](OC(C)=O)[C@H]1OC(C)=O [Compound 28] | did not observe any inhibitory effect
Cc1cn([C@@H]2C[C@H](O[C@@H](C=O)O[C@@H](C=O)CO)[C@@H](CO)O2)c(=O)[nH]c1=O [Compound 30] | did not lead to the noticeable inhibitory activity
Nc1nc2c(ncn2[C@H]2C[C@H](O[C@@H]3O[C@H](CO)[C@@H](O)[C@H]3O)[C@@H](CO)O2)c(=O)[nH]1 [Compound 34] | not inhibited
Nc1ccn([C@H]2C[C@H](O[C@@H]3O[C@H](CO)[C@@H](O)[C@H]3O)[C@@H](CO)O2)c(=O)n1 [Compound 35] | not inhibited
O=c1ccn([C@H]2C[C@H](O[C@@H]3O[C@H](CO)[C@@H](O)[C@H]3O)[C@@H](CO)O2)c(=O)[nH]1 [Compound 38] | not inhibited
O=c1[nH]c(=O)n([C@H]2C[C@H](O[C@@H]3OC[C@@H](O)[C@@H](O)[C@H]3O)[C@@H](CO)O2)cc1I [Compound 40] | did not observe any inhibitory effect
Nc1ncnc2c1ncn2[C@H]1C[C@H](O)[C@@H](CO[C@@H]2O[C@H](CO)[C@@H](O)[C@H]2O)O1 [Compound 43] | not inhibited
Cc1cn([C@H]2C[C@H](O)[C@@H](CO[C@@H]3O[C@H](CO)[C@@H](O)[C@H]3O)O2)c(=O)[nH]c1=O [Compound 44] | not inhibited
Nc1nc2c(ncn2[C@H]2C[C@H](O)[C@@H](CO[C@@H]3O[C@H](CO)[C@@H](O)[C@H]3O)O2)c(=O)[nH]1 [Compound 45] | weak inhibitory effect
Nc1ccn([C@H]2C[C@H](O)[C@@H](CO[C@@H]3O[C@H](CO)[C@@H](O)[C@H]3O)O2)c(=O)n1 [Compound 46] | not inhibited
O=c1ccn([C@H]2C[C@H](O)[C@@H](CO[C@@H]3O[C@H](CO)[C@@H](O)[C@H]3O)O2)c(=O)[nH]1 [Compound 47] | weak inhibitory effect
